Values of other authors as cited in patent US20120308672A1, “COMPOSITIONS FOR HAIR AND BODY APPLICATION” (EQYSS GROOMING PRODUCTS, priority 2004, published 2012).

Test system: mosquitoes
Conditions: topical repellent

**Q.** Which protection against mosquitoes does the source give for `CCN(CC)C(=O)c1cccc(C)c1` [DEET, N,N,-diethyl-m-toluamide] here?
**A.** effective and long-lasting protection
